Measurements published in ChEMBL document CHEMBL5154798, “Structure-based discovery of receptor tyrosine kinase AXL degraders with excellent anti-tumor activity by selectively degrading AXL and inducing methuosis” (Eur J Med Chem, 2022).
Calls of active or inactive are those of the source. No cut-off for these calls is given here.

How the values were obtained:
MDA-MB-231 [1] = experiment: Antiproliferative activity against human MDA-MB-231 cells highly expressing AXL after 72 hrs by MTT assay; details: MDA-MB-231, 72 h
4T1 [2] = experiment: Antiproliferative activity against mouse 4T1 cells highly expressing AXL after 72 hrs by MTT assay; details: 4T1, 72 h
[3] = Cytotoxicity against human MCF-10A cells after 72 hrs by MTT assay; format: toxicity, cell-based
[4] = Cytotoxicity against human GES1 cells after 72 hrs by MTT assay; format: toxicity, cell-based
MDA-MB-231 [5] = experiment: Induction of cytoplasmic vacuolation in human MDA-MB-231 cells at 0.5 uM; format: functional, cell-based
4T1 [6] = experiment: Induction of cytoplasmic vacuolation in mouse 4T1 cells at 0.5 uM; format: functional, cell-based
MDA-MB-231 [7] = experiment: Induction of macropinocytosis in human MDA-MB-231 cells measured by LysoTracker staining based fluorescence microscopy; format: functional, cell-based
MDA-MB-231 [8] = experiment: Induction of macropinocytosis in human MDA-MB-231 cells measured by MitoTracker staining based fluorescence microscopy; format: functional, cell-based
MDA-MB-231 [9] = experiment: Induction of macropinocytosis in human MDA-MB-231 cells assessed as co-localization of Rab7 with lucifer yellow measured by immunofluorescence assay; format: functional, cell-based
MDA-MB-231 [10] = experiment: Induction of macropinocytosis in human MDA-MB-231 cells assessed as co-localization of LAMP-1 with lucifer yellow measured by immunofluorescence assay; format: functional, cell-based
MDA-MB-231 [11] = experiment: Induction of cytoplasmic vacuolation in human MDA-MB-231 cells at 1 uM in presence of 1 uM pan-caspase inhibitor Z-VAD-FMK; format: functional, cell-based
MDA-MB-231 [12] = experiment: Antitumor activity against human MDA-MB-231 cells xenografted in female BALB/c nude mouse assessed as tumor growth inhibition at 25 mg/kg, ip; format: functional, organism-based
[13] = Toxicity in female BALB/c nude mouse xenografted with human MDA-MB-231 cells assessed as change in body wieght at 25 mg/kg, ip; format: organism-based; details: in vivo
[14] = Systemic toxicity in female BALB/c nude mouse xenografted with human MDA-MB-231 cells assessed as necrosis of heart tissue at 25 mg/kg, ip; format: organism-based; details: in vivo
[15] = Systemic toxicity in female BALB/c nude mouse xenografted with human MDA-MB-231 cells assessed as necrosis of liver tissue at 25 mg/kg, ip; format: organism-based; details: in vivo
[16] = Systemic toxicity in female BALB/c nude mouse xenografted with human MDA-MB-231 cells assessed as necrosis of spleen tissue at 25 mg/kg, ip; format: organism-based; details: in vivo
[17] = Systemic toxicity in female BALB/c nude mouse xenografted with human MDA-MB-231 cells assessed as necrosis of lung tissue at 25 mg/kg, ip; format: organism-based; details: in vivo
[18] = Systemic toxicity in female BALB/c nude mouse xenografted with human MDA-MB-231 cells assessed as necrosis of kidney tissue at 25 mg/kg, ip; format: organism-based; details: in vivo
[19] = Systemic toxicity in female BALB/c nude mouse xenografted with human MDA-MB-231 cells assessed as inflammatory cell infiltration in heart at 25 mg/kg, ip; format: organism-based; details: in vivo
[20] = Systemic toxicity in female BALB/c nude mouse xenografted with human MDA-MB-231 cells assessed as inflammatory cell infiltration in liver at 25 mg/kg, ip; format: organism-based; details: in vivo
[21] = Systemic toxicity in female BALB/c nude mouse xenografted with human MDA-MB-231 cells assessed as inflammatory cell infiltration in spleen at 25 mg/kg, ip; format: organism-based; details: in vivo
[22] = Systemic toxicity in female BALB/c nude mouse xenografted with human MDA-MB-231 cells assessed as inflammatory cell infiltration in lung at 25 mg/kg, ip; format: organism-based; details: in vivo
[23] = Systemic toxicity in female BALB/c nude mouse xenografted with human MDA-MB-231 cells assessed as inflammatory cell infiltration in kidney at 25 mg/kg, ip; format: organism-based; details: in vivo
[24] = AUC (0 to t) in male Sprague-Dawley rat at 2 mg/kg, iv administered as single dose measured by LC/MS/MS analysis; format: ADME, organism-based; parameters: dose 2 mg/kg, route iv; details: in vivo
[25] = Cmax in male Sprague-Dawley rat at 2 mg/kg, iv administered as single dose measured by LC/MS/MS analysis; format: ADME, organism-based; parameters: dose 2 mg/kg, route iv; details: in vivo
[26] = Tmax in male Sprague-Dawley rat at 2 mg/kg, iv administered as single dose measured by LC/MS/MS analysis; format: ADME, organism-based; details: in vivo
[27] = Half-life in male Sprague-Dawley rat at 2 mg/kg, iv administered as single dose measured by LC/MS/MS analysis; format: ADME, organism-based; details: in vivo
[28] = Clearance in male Sprague-Dawley rat at 2 mg/kg, iv administered as single dose measured by LC/MS/MS analysis; format: ADME, organism-based; details: in vivo, iv, 2 mg/kg
[29] = AUC (0 to t) in male Sprague-Dawley rat at 20 mg/kg, po administered as single dose measured by LC/MS/MS analysis; format: ADME, organism-based; parameters: dose 20 mg/kg, route po; details: in vivo
[30] = Cmax in male Sprague-Dawley rat at 20 mg/kg, po administered as single dose measured by LC/MS/MS analysis; format: ADME, organism-based; parameters: dose 20 mg/kg, route po; details: in vivo
[31] = Tmax in male Sprague-Dawley rat at 20 mg/kg, po administered as single dose measured by LC/MS/MS analysis; format: ADME, organism-based; details: in vivo
[32] = Half-life in male Sprague-Dawley rat at 20 mg/kg, po administered as single dose measured by LC/MS/MS analysis; format: ADME, organism-based; details: in vivo
[33] = Oral bioavailability in male Sprague-Dawley rat at 20 mg/kg administered as single dose measured by LC/MS/MS analysis; format: ADME, organism-based; details: in vivo
Mus musculus = experiment: In vivo induction of CRBN-mediated AXL degradation in mouse measured after 6 hrs; format: functional, organism-based
[34] = target: T1, Tyrosine-protein kinase receptor UFO (Homo sapiens, UniProt P30530); experiment: Inhibition of AXL (unknown origin) measured by FRET assay
T1 sequence (P30530 whole entry): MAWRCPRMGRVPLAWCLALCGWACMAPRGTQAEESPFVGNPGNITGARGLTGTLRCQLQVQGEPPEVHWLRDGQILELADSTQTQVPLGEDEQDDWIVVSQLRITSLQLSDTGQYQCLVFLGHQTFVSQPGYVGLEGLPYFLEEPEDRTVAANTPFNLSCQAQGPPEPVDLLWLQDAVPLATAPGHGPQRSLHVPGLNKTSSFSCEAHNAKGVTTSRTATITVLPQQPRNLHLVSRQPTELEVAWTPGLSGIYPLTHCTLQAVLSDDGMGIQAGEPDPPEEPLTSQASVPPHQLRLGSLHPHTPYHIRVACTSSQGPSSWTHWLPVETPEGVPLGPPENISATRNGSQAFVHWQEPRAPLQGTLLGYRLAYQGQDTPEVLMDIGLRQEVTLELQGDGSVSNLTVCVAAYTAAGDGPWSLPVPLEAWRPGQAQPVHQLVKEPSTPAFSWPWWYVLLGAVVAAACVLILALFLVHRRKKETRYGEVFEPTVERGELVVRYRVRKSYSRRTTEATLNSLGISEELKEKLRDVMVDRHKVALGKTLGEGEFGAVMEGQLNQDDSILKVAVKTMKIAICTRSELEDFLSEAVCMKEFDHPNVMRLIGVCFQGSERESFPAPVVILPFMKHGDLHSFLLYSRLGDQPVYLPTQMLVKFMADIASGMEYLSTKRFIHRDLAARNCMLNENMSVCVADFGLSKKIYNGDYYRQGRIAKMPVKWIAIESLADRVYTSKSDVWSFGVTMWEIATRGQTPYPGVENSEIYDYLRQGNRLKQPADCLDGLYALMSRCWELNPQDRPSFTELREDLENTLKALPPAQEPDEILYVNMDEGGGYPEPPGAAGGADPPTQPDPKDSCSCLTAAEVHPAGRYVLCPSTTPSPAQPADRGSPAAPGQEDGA

SMILES: Nc1nc(NCCNC(=O)CCCCCCCNc2cccc3c2CN(C2CCC(=O)NC2=O)C3=O)nn1-c1ccc(-c2ccccc2)nn1 (centres undefined)
- IC50 (MDA-MB-231 [1]): 34.7 µM
- IC50 (4T1 [2]): 19.5 µM
- IC50 at 72 h [3]: > 60 µM
- IC50 at 72 h [4]: > 60 µM

SMILES: Nc1nc(Nc2ccc(CNC(=O)CCCCCNc3cccc4c3CN(C3CCC(=O)NC3=O)C4=O)cc2)nn1-c1ccc(-c2ccccc2)nn1 (centres undefined)
- IC50 (MDA-MB-231 [1]): 6.23 µM
- IC50 (4T1 [2]): 2.06 µM
- IC50 at 72 h [3]: > 60 µM
- IC50 at 72 h [4]: > 60 µM
- Activity (MDA-MB-231 [5]): Active
- Activity (4T1 [6]): Active
- Activity (MDA-MB-231 [7]): Active
- Activity (MDA-MB-231 [8]): Active
- Activity (MDA-MB-231 [9]): Active
- Activity (MDA-MB-231 [10]): Active
- Activity (MDA-MB-231 [11]): Active
- TGI (MDA-MB-231 [12]): Active
- Activity [13]: Non-Toxic
- Activity [14]: Non-Toxic
- Activity [15]: Non-Toxic
- Activity [16]: Non-Toxic
- Activity [17]: Non-Toxic
- Activity [18]: Non-Toxic
- Activity [19]: Non-Toxic
- Activity [20]: Non-Toxic
- Activity [21]: Non-Toxic
- Activity [22]: Non-Toxic
- Activity [23]: Non-Toxic
- AUCt [24]: 7581.3 ng·h/mL
- Cmax [25]: 279 ng/mL
- Tmax [26]: 0.82 h
- t1/2 [27]: 1.18 h
- CL [28]: 12 mL/min/kg
- AUC(0-t) [29]: 3590 ng·h/mL
- Cmax [30]: 144 ng/mL
- Tmax [31]: 2.25 h
- half-life [32]: 4.43 h
- bioavailability [33]: 7.8%
- Activity (Mus musculus): Active

SMILES: Nc1nc(NCCNC(=O)CCCCNc2cccc3c2CN(C2CCC(=O)NC2=O)C3=O)nn1-c1ccc(-c2ccccc2)nn1 (centres undefined)
- IC50 (MDA-MB-231 [1]): 52.2 µM
- IC50 (4T1 [2]): > 60 µM
- IC50 at 72 h [3]: > 60 µM
- IC50 at 72 h [4]: > 60 µM

SMILES: Nc1nc(NCCNC(=O)CCCCCNc2cccc3c2CN(C2CCC(=O)NC2=O)C3=O)nn1-c1cc2c(nn1)-c1ccccc1CCC2 (centres undefined)
- IC50 (MDA-MB-231 [1]): > 60 µM
- IC50 (4T1 [2]): 37.5 µM
- IC50 at 72 h [3]: > 60 µM
- IC50 at 72 h [4]: > 60 µM

SMILES: Nc1nc(Nc2ccc(CNC(=O)CCCCCCNc3cccc4c3CN(C3CCC(=O)NC3=O)C4=O)cc2)nn1-c1cc2c(nn1)-c1ccccc1CCC2 (centres undefined)
- IC50 (MDA-MB-231 [1]): 29.5 µM
- IC50 (4T1 [2]): 2230 µM
- IC50 at 72 h [3]: > 60 µM
- IC50 at 72 h [4]: > 60 µM

SMILES: Nc1nc(Nc2ccc(CNC(=O)CCCCNc3cccc4c3CN(C3CCC(=O)NC3=O)C4=O)cc2)nn1-c1cc2c(nn1)-c1ccccc1CCC2 (centres undefined)
- IC50 (MDA-MB-231 [1]): 39.1 µM
- IC50 (4T1 [2]): 41.3 µM
- IC50 at 72 h [3]: > 60 µM
- IC50 at 72 h [4]: > 60 µM

SMILES: Nc1nc(NCCNC(=O)CCCCNc2cccc3c2CN(C2CCC(=O)NC2=O)C3=O)nn1-c1cc2c(nn1)-c1ccccc1CCC2 (centres undefined)
- IC50 (MDA-MB-231 [1]): 36.2 µM
- IC50 (4T1 [2]): 7.05 µM
- IC50 at 72 h [3]: > 60 µM
- IC50 at 72 h [4]: > 60 µM

SMILES: Nc1nc(Nc2ccc(CNC(=O)CCCCCNc3cccc4c3CN(C3CCC(=O)NC3=O)C4=O)cc2)nn1-c1cc2c(nn1)-c1ccccc1CCC2 (centres undefined)
- IC50 (MDA-MB-231 [1]): 32.8 µM
- IC50 (4T1 [2]): 29.6 µM
- IC50 at 72 h [3]: > 60 µM
- IC50 at 72 h [4]: > 60 µM

SMILES: Nc1nc(NCCNC(=O)CCCNc2cccc3c2CN(C2CCC(=O)NC2=O)C3=O)nn1-c1ccc(-c2ccccc2)nn1 (centres undefined)
- IC50 [34]: > 60 µM
- IC50 (MDA-MB-231 [1]): > 60 µM
- IC50 (4T1 [2]): > 60 µM
- IC50 at 72 h [3]: > 60 µM
- IC50 at 72 h [4]: > 60 µM

SMILES: Nc1nc(NCCNC(=O)CCCCCCNc2cccc3c2CN(C2CCC(=O)NC2=O)C3=O)nn1-c1cc2c(nn1)-c1ccccc1CCC2 (centres undefined)
- IC50 at 72 h [3]: > 60 µM
- IC50 at 72 h [4]: > 60 µM
